The target of series [1] is glycosyltransferase (PBP 1b) (Escherichia coli, UniProt P02919). As to the kind of experiment: glycosyltransferase assay: displacement of 3H-moenomycin from the glycosyltransferase (PBP 1b)/3H-moenomycin complex. Format: binding. The settings on record: displacement of 3H-moenomycin from PBP 1b; read-out: inhibitory constants (IC50 values) in the glycosyltransferase assay. An excerpt: Table 1 summarizes, by way of example, the inhibitory concentrations (IC50) of some compounds of the invention. A special test system was used for finding glycosyltransferase inhibitors that are specific and very effective. This system uses a glycosyltransferase/^3H-moenomycin complex, which is brought into contact with substances that are to be tested. The determination of the GT-inhibitory effect is based on the displacement of radioactively labeled moenomycin A from the glycosyltransferase (PBP 1b)/^3H-moenomycin complex, it being possible to separate the released ^3H-moenomycin, as a soluble compound, from the fixed complex and to measure the remaining radioactivity using a Geiger counter.
The assay was carried out as described by Vollmer & Höltje (Antimicrobial Agents and Chemotherapy 2000, 44, 1181-1185), except that purified penicillin-binding protein 1b (PBP 1b; 5 pM), carrying ^3H-labeled moenomycin at the glycosyltransferase site, was used in the present example instead of [3H]benzylpenicillin. ^3H-Moenomycin was obtained from moenomycin A (Kurz et al., Eur. J. Biochem., 1998, 252, 500-507) by hydrogenating it with ^3H2:
6 mg of moenomycin, dissolved in 300 μL methanol, were added to a 1 cm^3 flask, after which 2 mg of palladium-charcoal (Degussa Type E10N/D) were added. The flask was then gassed, while excluding air, with 1 cm^3 3H2; and the reaction solution was left to hydrogenate for 15 minutes. After the reaction had come to an end, the catalyst was filtered off from the reaction mixture, which was diluted to 100 mL with ethanol. This solution can be used directly for preparing the glycosyltransferase/^3H-moenomycin complex. Total radioactivity of the reaction product: 6.56 GBq (177 mCi); specific activity: 1.9 TBq/mmol. The radioactive complex was attached to SPA PVT Copper His-Tag beads. The radioactive moenomycin that was displaced by the inhibitors was measured. • SPA PVT Copper His-Tag beads: Amersham RPN 0095; • PBS: GIBCO BRL 14200-067; • BSA: Calbiochem 12657; • NOG: SIGMA O-8001 (n-octyl β-D-glucopyranoside); • Tween 20: Acros 23336-067; • Microtiter plates: Greiner Labortechnik.
The determination was carried out in microtiter plates. 10 μL of the test solution were added to the microtiter plates, followed by 10 μL of ^3H-moenomycin (25 nM, 3.1 kBq/well) and 40 μL of SPA beads loaded with PBP 1b (100 μg of beads, 45 nM enzyme). The plates were sealed and left to stand at room temperature for 8 hours. After that, the beads were separated off from the test solution by centrifuging for 3 minutes at 1300 rpm. The distribution of the radioactivity was measured in a WALLAC MicroBeta® 1450 Counter.
The inhibitory values were calculated in accordance with the formula: [1−(cpmsample−cpmlow ctr)/(cpmhigh ctr−cpmlow ctr)]×100(%).
For orientation: Displacement assays read how much labelled ligand stays bound in the presence of the test substance.

Series [2] can be described thus: solubility (description of the substance). The following applies: for solubility in organic solvents: medium-polar and polar organic solvents. Format: physicochemical.
The nature of series [3]: stability (description of the substance). Format: physicochemical. The settings on record: for stability in solution depending on pH: neutral, mildly acidic, strongly acidic, strongly alkaline media.
For a further series, the system named is Bacillus subtilis. The settings on record: against Bacillus subtilis; cited from earlier work.
The conditions of series [4]: cited from earlier work.

As usually defined, the IC50 is the point on the concentration scale where inhibition reaches its midpoint.

Chain of glycosyltransferase (PBP 1b) (P02919 whole entry): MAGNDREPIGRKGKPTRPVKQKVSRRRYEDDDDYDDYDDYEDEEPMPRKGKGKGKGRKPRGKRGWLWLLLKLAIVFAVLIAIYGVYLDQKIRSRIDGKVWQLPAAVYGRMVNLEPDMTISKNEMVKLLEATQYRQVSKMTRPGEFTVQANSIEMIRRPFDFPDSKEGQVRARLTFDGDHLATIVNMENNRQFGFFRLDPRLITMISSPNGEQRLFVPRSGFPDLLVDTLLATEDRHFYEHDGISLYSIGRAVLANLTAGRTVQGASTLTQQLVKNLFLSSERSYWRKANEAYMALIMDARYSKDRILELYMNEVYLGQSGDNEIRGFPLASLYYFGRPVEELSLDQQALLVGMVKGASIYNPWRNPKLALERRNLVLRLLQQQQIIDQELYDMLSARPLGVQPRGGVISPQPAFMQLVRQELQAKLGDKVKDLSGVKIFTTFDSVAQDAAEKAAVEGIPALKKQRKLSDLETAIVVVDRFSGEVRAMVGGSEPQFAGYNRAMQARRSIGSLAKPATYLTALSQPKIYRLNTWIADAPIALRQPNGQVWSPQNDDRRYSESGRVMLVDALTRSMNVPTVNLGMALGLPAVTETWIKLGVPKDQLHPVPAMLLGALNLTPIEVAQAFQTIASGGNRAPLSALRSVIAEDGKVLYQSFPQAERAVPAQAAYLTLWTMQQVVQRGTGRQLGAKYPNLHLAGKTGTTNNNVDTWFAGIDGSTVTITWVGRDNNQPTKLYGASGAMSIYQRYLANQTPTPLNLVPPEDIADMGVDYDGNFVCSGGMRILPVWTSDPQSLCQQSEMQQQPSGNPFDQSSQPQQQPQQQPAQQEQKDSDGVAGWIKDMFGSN

As for `O=C(O)/C=C/C=C\C=C\C=C/c1ccccc1/C=C/C=C/C(=O)O` [serpentemycin A], the IC50 in series [1] came out at 0.2 µM. Also, in series [2], the “solubility in organic solvents” value was “soluble in medium-polar and polar organic solvents”; the solubility in water entry is on record as “not particularly soluble in water”. In series [3], the “sensitivity to light and air” value was “sensitive to light and air”; the “stability in solution depending on pH” value is “stable in neutral and mildly acidic media but unstable in strongly acidic and strongly alkaline solution”.

With `O=C(O)/C=C/C=C/C=C\c1ccccc1/C=C/C=C/C(=O)O` [serpentemycin B], the IC50 in series [1] turned out to be 0.1 µM. Also, in series [2], the “solubility in organic solvents” value is “soluble in medium-polar and polar organic solvents”; the solubility in water entry is reported as “not particularly soluble in water”. Also, in series [3], the “sensitivity to light and air” value was “sensitive to light and air”; the “stability in solution depending on pH” value is “stable in neutral and mildly acidic media, but unstable in strongly acidic and strongly alkaline solution”.

Take `CC(O)C(O)/C=C/C=C/C=C/c1ccccc1/C=C/C=C/C(=O)O` (stereo not drawn) [serpentemycin D]: in series [1], the IC50 was 19 µM. Moreover, in series [2], the “solubility in organic solvents” value is “soluble in medium-polar and polar organic solvents”; the solubility in water result is listed as “not particularly soluble in water”. Also, in series [3], the “sensitivity to light and air” value was “sensitive to light and air”; the “stability in solution depending on pH” value is “stable in neutral and mildly acidic media but unstable in strongly acidic and strongly alkaline solution”.

Regarding `C/C=C/C=C\C=C\C=C/c1ccccc1/C=C/C=C/C(=O)O` [serpentene, reference compound], in series [1], the IC50 stood at 18 µM. Further, the antibiotic effect result in the series on Bacillus subtilis is “weak antibiotic effect”.

As for moenomycin, the “absorption from the gastrointestinal tract” value in series [4] is on record as “not absorbed from the gastrointestinal tract”.
